Source: US11795169B2, “MAP4K4 inhibitors” (IMPERIAL COLLEGE INNOVATIONS LIMITED, priority 2017, dated 2023)
Like-named read-outs stand apart in the source and are kept apart here. Values belong to the molecule of their own block, whether it stands above or below them.

Tests used:
[1] = target: Aurora B (Homo sapiens (Human), UniProt Q96GD4); test: Kinase selectivity panel: Aurora B; format: biochemical
Text: (§1) Compounds of the present invention were screened for their inhibitory activity against MAP4K4, versus selected off-target hits found with early members of this chemical series. MAP4K4 kinase activity was monitored using the CisBio HTRF Transcreener ADP assay, acompetitive immunoassay with a reproducible Z′>0.6. In the detection step, endogenous ADP and d2-labeled ADP compete for binding an anti-ADP monoclonal antibody labelled with Eu^3+ cryptate. A ratiometric fluorescent read-out is used at 665 and 620 nm. […] Assays were run in Greiner low volume plates with a final reaction volume of 10 μl. The MAP4K4 inhibition data are provided in Table 33 below for selected compounds of the present invention. The data has been categorised based on the IC50 value of the compound as “A”, “B” or “C”.
(§2) The data in Table 34 also provides the fold selectivity of the two compounds in favour of MAP4K4 over the tested kinase. The fold selectivity is indicated in parenthesis.

[2] = system: NUAK; test: Kinase selectivity panel: NUAK; format: biochemical
Procedure: (§3) In the detection step, endogenous ADP and d2-labeled ADP compete for binding an anti-ADP monoclonal antibody labelled with Eu^3+ cryptate. […] Assays were run in Greiner low volume plates with a final reaction volume of 10 μl.
(§4) The fold selectivity is indicated in parenthesis.

[3] = target: GSK3β (Homo sapiens (Human), UniProt P49841); test: Kinase selectivity panel: GSK3β; format: biochemical
Chain of GSK3β (P49841 whole entry, species assumed): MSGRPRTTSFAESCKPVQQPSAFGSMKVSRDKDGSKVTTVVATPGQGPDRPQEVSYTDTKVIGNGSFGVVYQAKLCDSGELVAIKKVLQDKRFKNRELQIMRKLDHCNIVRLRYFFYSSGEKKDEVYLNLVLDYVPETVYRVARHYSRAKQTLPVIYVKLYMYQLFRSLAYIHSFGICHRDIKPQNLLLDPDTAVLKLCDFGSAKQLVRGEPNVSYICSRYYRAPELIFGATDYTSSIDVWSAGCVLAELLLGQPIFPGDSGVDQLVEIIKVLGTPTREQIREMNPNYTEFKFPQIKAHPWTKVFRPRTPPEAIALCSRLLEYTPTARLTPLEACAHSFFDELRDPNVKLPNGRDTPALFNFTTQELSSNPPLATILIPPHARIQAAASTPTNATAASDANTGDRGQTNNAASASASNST
Text: as §1, §2

[4] = target: GLK/MAP4K3 (Homo sapiens (Human), UniProt Q8IVH8); test: Kinase selectivity panel: GLK/MAP4K3; format: biochemical
Text: as §1, §2

[5] = target: MLK1/MAP3K9 (Homo sapiens (Human), UniProt P80192); test: Kinase selectivity panel: MLK1/MAP3K9; format: biochemical
Chain of MLK1/MAP3K9 (P80192 whole entry): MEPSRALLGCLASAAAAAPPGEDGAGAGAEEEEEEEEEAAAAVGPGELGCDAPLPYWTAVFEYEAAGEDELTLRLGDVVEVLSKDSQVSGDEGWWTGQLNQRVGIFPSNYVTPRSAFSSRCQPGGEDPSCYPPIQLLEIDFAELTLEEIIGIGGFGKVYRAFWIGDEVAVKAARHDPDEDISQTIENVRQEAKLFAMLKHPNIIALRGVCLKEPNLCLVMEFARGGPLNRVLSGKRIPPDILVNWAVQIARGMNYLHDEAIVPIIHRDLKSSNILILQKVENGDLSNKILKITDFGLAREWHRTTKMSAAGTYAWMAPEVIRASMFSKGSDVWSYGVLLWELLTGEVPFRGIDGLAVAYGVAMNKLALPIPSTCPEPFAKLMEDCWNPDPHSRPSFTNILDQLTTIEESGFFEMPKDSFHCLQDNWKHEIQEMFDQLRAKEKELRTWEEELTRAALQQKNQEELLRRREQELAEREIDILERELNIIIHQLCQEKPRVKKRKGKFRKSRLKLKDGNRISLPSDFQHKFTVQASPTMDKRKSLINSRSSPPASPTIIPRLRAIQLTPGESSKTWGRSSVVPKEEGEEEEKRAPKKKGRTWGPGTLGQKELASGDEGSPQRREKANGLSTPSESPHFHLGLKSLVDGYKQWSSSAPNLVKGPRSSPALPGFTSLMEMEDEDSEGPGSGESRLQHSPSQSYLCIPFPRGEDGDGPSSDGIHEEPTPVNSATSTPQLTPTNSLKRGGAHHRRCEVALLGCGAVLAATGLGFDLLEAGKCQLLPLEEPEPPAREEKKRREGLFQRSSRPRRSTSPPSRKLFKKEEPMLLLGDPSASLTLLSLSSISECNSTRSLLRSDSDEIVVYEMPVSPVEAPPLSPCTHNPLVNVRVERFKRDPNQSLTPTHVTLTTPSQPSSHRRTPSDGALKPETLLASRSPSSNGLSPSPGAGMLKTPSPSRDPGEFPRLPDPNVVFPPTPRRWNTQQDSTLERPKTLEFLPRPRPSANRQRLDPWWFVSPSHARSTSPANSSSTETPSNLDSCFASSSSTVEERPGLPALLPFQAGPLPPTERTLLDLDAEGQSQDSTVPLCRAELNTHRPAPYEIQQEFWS
Text: as §1, §2

[6] = target: MLK3/MAP3K11 (Homo sapiens (Human), UniProt Q16584); test: Kinase selectivity panel: MLK3/MAP3K11; format: biochemical
Text: as §1, §2

[7] = target: GCK/MAP4K2 (Homo sapiens (Human), UniProt Q12851); test: Kinase selectivity panel: GCK/MAP4K2; format: biochemical
Text: as §1, §2

[8] = target: KHS/MAP4K5 (Homo sapiens (Human), UniProt Q9Y4K4); test: Kinase selectivity panel: KHS/MAP4K5; format: biochemical
Chain of KHS/MAP4K5 (Q9Y4K4 whole entry): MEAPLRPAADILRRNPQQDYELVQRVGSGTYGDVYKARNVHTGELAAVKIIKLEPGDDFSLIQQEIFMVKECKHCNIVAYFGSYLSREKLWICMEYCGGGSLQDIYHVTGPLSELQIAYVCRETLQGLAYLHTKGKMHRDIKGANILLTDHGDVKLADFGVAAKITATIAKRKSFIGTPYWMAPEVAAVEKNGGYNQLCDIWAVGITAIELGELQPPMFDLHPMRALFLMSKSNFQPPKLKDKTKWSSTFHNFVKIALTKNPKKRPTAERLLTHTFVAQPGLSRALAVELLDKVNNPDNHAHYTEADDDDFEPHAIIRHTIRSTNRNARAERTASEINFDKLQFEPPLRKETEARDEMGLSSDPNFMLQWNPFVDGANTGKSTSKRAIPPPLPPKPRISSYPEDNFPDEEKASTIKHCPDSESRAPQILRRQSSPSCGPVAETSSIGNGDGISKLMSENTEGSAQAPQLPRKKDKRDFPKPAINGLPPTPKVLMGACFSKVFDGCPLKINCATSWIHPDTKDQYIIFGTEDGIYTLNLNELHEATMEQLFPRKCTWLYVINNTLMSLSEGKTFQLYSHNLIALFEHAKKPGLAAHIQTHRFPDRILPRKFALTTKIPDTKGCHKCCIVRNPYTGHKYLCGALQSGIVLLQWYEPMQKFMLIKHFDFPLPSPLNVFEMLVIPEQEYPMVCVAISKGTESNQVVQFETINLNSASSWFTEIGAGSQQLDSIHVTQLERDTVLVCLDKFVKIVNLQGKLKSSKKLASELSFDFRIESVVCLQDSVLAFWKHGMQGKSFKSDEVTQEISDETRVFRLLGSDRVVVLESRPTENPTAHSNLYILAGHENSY
Text: as §1, §2

[9] = target: TNIK/MAP4K7 (Homo sapiens (Human), UniProt Q9UKE5); test: Kinase selectivity panel: TNIK/MAP4K7; format: biochemical; conditions: read-out: pIC50 TNIK/MAP4K7 (converted)
Text: as §1, §2

[10] = target: human MAP4K4 kinase domain (Homo sapiens (Human), UniProt O95819); test: MAP4K4 kinase activity, CisBio HTRF Transcreener ADP assay; format: biochemical
Chain of human MAP4K4 kinase domain (O95819 25-289): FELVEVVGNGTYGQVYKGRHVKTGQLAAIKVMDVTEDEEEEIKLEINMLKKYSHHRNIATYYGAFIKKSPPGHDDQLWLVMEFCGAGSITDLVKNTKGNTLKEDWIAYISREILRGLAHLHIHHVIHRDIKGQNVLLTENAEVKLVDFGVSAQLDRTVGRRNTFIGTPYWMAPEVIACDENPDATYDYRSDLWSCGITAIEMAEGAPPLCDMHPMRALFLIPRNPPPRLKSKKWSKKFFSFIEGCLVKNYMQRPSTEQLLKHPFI
Text: as §1

[11] = target: FLT3 (Homo sapiens (Human), UniProt P36888); test: Kinase selectivity panel: FLT3; format: biochemical
Chain of FLT3 (P36888 27-993, species assumed): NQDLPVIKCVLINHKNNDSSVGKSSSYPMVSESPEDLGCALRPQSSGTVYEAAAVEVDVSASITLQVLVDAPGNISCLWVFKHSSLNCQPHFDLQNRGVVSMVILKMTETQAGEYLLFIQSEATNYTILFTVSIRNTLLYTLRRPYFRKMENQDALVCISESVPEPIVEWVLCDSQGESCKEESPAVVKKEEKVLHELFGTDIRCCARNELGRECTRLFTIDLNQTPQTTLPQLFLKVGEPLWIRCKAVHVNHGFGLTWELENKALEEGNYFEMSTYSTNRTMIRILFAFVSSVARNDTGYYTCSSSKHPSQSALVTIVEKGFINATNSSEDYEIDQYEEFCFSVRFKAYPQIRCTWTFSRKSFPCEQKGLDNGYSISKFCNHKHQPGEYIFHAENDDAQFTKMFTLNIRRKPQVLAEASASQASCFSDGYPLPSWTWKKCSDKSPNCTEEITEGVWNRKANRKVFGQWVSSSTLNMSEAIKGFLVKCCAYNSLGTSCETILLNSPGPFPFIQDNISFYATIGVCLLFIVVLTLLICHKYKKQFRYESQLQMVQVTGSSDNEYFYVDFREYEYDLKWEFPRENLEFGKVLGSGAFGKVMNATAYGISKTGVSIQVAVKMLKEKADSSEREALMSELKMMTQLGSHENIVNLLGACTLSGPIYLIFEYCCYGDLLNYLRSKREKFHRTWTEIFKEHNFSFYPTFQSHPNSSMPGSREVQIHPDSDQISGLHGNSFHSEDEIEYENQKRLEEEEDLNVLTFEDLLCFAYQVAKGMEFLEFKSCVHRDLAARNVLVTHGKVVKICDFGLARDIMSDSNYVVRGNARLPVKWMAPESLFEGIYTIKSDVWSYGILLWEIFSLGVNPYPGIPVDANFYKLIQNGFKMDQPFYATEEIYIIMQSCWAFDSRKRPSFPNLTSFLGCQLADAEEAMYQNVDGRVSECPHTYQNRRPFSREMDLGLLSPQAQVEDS
Text: as §1, §2

[12] = system: VEGFR; test: Kinase selectivity panel: VEGFR; format: biochemical
Procedure: as §3, §4

[13] = target: ABL1 (Homo sapiens (Human), UniProt P00519); test: Kinase selectivity panel: ABL1; format: biochemical
Chain of ABL1 (P00519 whole entry, species assumed): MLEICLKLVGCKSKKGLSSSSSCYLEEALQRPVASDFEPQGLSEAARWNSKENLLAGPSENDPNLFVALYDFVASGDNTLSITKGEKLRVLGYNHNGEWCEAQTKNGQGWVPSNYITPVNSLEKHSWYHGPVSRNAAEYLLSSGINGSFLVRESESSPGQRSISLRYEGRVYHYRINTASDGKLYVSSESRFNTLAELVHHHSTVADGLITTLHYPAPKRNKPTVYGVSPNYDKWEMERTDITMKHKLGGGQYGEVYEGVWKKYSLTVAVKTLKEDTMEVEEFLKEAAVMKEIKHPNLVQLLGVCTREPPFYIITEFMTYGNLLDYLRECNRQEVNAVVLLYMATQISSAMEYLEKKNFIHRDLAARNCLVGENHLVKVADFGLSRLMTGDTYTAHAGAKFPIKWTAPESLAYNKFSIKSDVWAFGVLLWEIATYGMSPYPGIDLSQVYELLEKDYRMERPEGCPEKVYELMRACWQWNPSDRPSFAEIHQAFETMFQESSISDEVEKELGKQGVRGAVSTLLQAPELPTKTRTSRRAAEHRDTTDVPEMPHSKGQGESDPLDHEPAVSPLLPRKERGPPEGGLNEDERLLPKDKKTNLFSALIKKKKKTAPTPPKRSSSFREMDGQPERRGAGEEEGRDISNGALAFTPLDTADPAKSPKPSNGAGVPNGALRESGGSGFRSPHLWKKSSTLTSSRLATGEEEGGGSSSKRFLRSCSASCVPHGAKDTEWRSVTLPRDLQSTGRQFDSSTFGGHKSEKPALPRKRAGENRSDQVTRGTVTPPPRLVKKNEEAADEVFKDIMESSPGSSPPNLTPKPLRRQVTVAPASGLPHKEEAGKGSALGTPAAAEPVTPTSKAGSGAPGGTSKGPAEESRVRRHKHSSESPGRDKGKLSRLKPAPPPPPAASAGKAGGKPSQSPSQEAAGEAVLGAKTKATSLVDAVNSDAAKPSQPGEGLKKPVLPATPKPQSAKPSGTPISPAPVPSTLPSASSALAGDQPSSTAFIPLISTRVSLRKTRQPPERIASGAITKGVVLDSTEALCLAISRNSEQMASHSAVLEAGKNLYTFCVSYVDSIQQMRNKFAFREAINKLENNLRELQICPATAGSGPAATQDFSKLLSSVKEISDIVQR
Text: as §1, §2

[14] = target: MINK1/MAP4K6 (Homo sapiens (Human), UniProt Q8N4C8); test: Kinase selectivity panel: MINK1/MAP4K6; format: biochemical; conditions: read-out: pIC50 MINK1/MAP4K6 (converted)
Text: as §1, §2

[15] = mouse, in vivo
[16] = system: iCell cardiomyocytes (hiPSC-CMs); test: Human cardiac muscle cell death in iCell cardiomyocytes (DRAQ7 uptake); format: cell-based; conditions: 1.25 μM, lowest concentration tested
Text: First, the expression of cardiomyocyte-specific markers and of MAP4K4 protein was validated (FIG. 5A, B). Two of three shRNAs directed against human MAP4K4 reduced expression >60%, with no extraneous effect on M/NK/MAP4K6 and TN/K/MAP4K7, the most closely related genes (FIG. 5C). Cell death was quantified by high-content analysis (FIG. 5D) as the loss of membrane integrity (DRAQ7 uptake) in successfully transduced (GFP^+) hiPSC-CMs (Myh6-RFP^+). Each of the two potent shRNAs conferred protection against H2O2: myocyte loss was reduced up to 50% (FIG. 5E).
To substantiate the hypothesis that pharmacological inhibition of MAP4K4 would confer resistance to cell death in human cardiomyocytes, cytoprotection was next assessed using hiPSC-CMs. […] Human cardiac muscle cell protection was substantiated in a second, independent line, CorV.4U cardiomyocytes, which are more highly enriched for ventricular myocytes.

[17] = system: CorV.4U cardiomyocytes (hiPSC-CMs); test: Protection of CorV.4U cardiomyocytes from H2O2 or menadione (luminescent cell viability assay, human cardiac troponin assay); format: cell-based; conditions: 10 μM; luminescent cell viability assay, human cardiac troponin assay
Text: To substantiate the hypothesis that pharmacological inhibition of MAP4K4 would confer resistance to cell death in human cardiomyocytes, cytoprotection was next assessed using hiPSC-CMs.

Chain of Aurora B (Q96GD4 whole entry): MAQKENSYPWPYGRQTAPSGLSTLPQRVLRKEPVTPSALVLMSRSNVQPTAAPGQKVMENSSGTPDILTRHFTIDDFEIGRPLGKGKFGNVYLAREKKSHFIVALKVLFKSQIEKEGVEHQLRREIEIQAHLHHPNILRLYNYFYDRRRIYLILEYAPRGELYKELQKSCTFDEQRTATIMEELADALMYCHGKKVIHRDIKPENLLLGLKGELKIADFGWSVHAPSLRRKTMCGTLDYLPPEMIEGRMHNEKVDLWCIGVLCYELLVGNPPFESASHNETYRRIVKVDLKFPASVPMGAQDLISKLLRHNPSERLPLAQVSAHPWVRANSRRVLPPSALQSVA

- fold selectivity for MAP4K4 over Aurora B [1]: (31622) fold
- IC50 ([1]; read-out: pIC50 Aurora B (converted)): 31600 nM
- fold selectivity for MAP4K4 over NUAK [2]: (63) fold
- pIC50 NUAK [2]: 7.2
- fold selectivity for MAP4K4 over GSK3β [3]: (31622) fold
- IC50 ([3]; read-out: pIC50 GSK3β (converted)): 31600 nM
- fold selectivity for MAP4K4 over GLK/MAP4K3 [4]: (31622) fold
- IC50 ([4]; read-out: pIC50 GLK/MAP4K3 (converted)): 31600 nM
- fold selectivity for MAP4K4 over MLK1/MAP3K9 [5]: (63) fold
- IC50 ([5]; read-out: pIC50 MLK1/MAP3K9 (converted)): 63.1 nM
- fold selectivity for MAP4K4 over MLK3/MAP3K11 [6]: (63) fold
- IC50 ([6]; read-out: pIC50 MLK3/MAP3K11 (converted)): 63.1 nM
- fold selectivity for MAP4K4 over GCK/MAP4K2 [7]: (316) fold
- IC50 ([7]; read-out: pIC50 GCK/MAP4K2 (converted)): 316 nM
- fold selectivity for MAP4K4 over KHS/MAP4K5 [8]: (316) fold
- IC50 ([8]; read-out: pIC50 KHS/MAP4K5 (converted)): 1000 nM
- IC50 [9]: 5.01 nM
- IC50 ([10]; ATP at Km (10 μM), 0.5 nM kinase domain, 2 h, read-out: MAP4K4): ≤ 100 nM
- IC50 ([10]; read-out: pIC50 MAP4K4 (converted)): 1.58 nM
- fold selectivity for MAP4K4 over FLT3 [11]: (31622) fold
- IC50 ([11]; read-out: pIC50 FLT3 (converted)): 31600 nM
- fold selectivity for MAP4K4 over VEGFR [12]: (501) fold
- pIC50 VEGFR [12]: 6.3
- fold selectivity for MAP4K4 over ABL1 [13]: (794) fold
- IC50 ([13]; read-out: pIC50 ABL1 (converted)): 794 nM
- IC50 [14]: 7.94 nM
SMILES: O=C1NCCN1c1ccc(-c2cn(-c3ccccc3)c3nc[nH]c(=O)c23)cc1 [Ex-61]

SMILES: Oc1ncnc2c1c(-c1ccccc1)cn2-c1ccccc1 [F1386-0303, 5,7-diphenyl-7H-pyrrolo[2,3-d]pyrimidin-4-ol, reference compound]
- pIC50 Aurora B [1]: 4.88
- clearance and oral exposure in mice (in words) [15]: rapidly cleared and accumulates only to low levels
- AUCinf ([15]; po, 50 mg/kg): 2162
- pIC50 GSK3β [3]: 4.57
- reduction of human cardiac muscle cell death [16]: 50%
- protection from H2O2 or menadione [17]: virtually complete
- pIC50 MAP4K4 [10]: 7.46
- IC50 ([10]; read-out: IC50 (MAP4K4)): 34 nM
- pIC50 FLT3 [11]: 5.66
- pIC50 ABL1 [13]: 4.52
